Assay [1] has as its target T1, A2 component (Methanococcus maripaludis, UniProt A0A2L1C9A1).
T1 construct: gene opuCA; with Methyl-coenzyme M reductase subunit alpha; Methyl-coenzyme M reductase subunit beta; Methyl-coenzyme M reductase subunit gamma; Methyl-coenzyme M reductase operon protein C; Methanogenesis marker protein 7; Methanogenesis marker protein 17; Methanogenesis marker protein 3; DUF2098 domain-containing protein
The assay is described as follows: mass photometry (stabilisation of the complex). The note with it: 5 mM AMP-PNP, 20 mM Ti(III) citrate; indirect, through assembly of A2 with MCR. It counts as binding.

Assay [2] concerns the target T1, A2 component. The assay is described as follows: cryo-EM structure. In kind it is binding. The note with it: two ATP with Mg ions, pre-hydrolytic state; sample incubated with 5 mM ATP.
Assay [3] addresses T2, MCR (McrABG core) in the MCR activation complex (Methanococcus maripaludis, UniProt A0A2L1CBB0+A0A2L1CBB3+A0A2L1CBG2).
T2 construct: gene mcrA; native complex pulled down from M. maripaludis by genomic N-terminal Twin-Strep-tag on McrC; McrA with native post-translational modifications; with Methyl-coenzyme M reductase operon protein C; Methanogenesis marker protein 7; Methanogenesis marker protein 17; Methanogenesis marker protein 3; Methyl-coenzyme M reductase system component A2; DUF2098 domain-containing protein
Briefly: cryo-EM structure. It counts as binding.

Assay [4] has as its target methyl-coenzyme M reductase (MCR) core (Methanococcus maripaludis (endogenous in M. maripaludis JJ Δupt)) (UniProt Q6LWZ9). Briefly: cryo-EM structure; single-particle analysis of the Strep-Tactin-purified MCR activation complex (1.2 mg/ml), vitrified anaerobically 'as isolated' (maps with A2 at 2.5 Å and without A2 at 2.7 Å) and after 30 min with 5 mM ATP and the CH4 reaction components except Ti(III) citrate (2.1 Å, locally 1.8 Å).

T2 sequence (A0A2L1CBB3 entry or part of it): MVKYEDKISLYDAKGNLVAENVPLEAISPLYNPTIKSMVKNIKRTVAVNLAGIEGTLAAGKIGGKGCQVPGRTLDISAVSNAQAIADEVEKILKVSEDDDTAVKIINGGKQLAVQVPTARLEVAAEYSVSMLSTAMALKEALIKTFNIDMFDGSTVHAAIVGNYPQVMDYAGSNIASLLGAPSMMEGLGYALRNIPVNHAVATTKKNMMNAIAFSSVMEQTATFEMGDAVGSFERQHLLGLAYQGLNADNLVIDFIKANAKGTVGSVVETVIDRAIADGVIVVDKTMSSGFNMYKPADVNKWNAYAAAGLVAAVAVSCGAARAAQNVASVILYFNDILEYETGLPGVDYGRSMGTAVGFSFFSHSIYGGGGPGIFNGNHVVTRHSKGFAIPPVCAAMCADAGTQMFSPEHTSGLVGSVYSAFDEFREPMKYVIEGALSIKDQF
T2 sequence (A0A2L1CBB0 entry or part of it): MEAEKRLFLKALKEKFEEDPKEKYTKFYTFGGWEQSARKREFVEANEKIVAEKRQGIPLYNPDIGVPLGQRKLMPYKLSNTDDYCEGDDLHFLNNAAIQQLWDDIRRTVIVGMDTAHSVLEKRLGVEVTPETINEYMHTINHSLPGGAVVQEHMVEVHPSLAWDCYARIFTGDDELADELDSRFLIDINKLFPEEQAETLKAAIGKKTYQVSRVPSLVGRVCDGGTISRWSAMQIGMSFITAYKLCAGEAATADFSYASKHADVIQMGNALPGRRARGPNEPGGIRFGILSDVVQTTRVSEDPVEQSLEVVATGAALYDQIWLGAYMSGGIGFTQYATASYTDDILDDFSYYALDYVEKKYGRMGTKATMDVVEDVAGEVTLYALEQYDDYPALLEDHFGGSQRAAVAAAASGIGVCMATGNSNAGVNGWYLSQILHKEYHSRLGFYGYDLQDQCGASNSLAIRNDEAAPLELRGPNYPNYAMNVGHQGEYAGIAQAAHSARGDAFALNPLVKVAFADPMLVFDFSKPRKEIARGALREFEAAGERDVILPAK
T2 sequence (A0A2L1CBG2 entry or part of it): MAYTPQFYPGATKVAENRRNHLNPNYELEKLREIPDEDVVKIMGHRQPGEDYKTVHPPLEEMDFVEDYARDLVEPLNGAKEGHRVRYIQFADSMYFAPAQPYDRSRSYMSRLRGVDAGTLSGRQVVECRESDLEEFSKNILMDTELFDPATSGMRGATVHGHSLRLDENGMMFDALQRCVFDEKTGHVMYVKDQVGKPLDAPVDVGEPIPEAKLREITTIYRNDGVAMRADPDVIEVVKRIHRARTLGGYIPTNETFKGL
T2 sequence (G0H3B1 entry or part of it, further chain): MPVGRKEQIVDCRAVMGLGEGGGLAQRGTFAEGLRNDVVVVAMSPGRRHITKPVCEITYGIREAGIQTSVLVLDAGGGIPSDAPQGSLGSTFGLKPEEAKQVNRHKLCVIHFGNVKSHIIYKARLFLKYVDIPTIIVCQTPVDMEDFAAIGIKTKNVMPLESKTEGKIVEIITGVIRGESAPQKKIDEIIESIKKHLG

Turning to `Nc1ncnc2c1ncn2[C@@H]1O[C@H](COP(=O)(O)OP(=O)(O)NP(=O)(O)O)[C@@H](O)[C@H]1O` [AMP-PNP], the “mass photometry (stabilisation of the complex)” value on A2 component [1] is listed as “A similar effect was observed when AMP-PNP, a non-hydrolysable ATP analogue, was used”. As to `Nc1ncnc2c1ncn2[C@@H]1O[C@H](COP(=O)(O)OP(=O)(O)OP(=O)(O)O)[C@@H](O)[C@H]1O` [ATP], the cryo-EM structure result on A2 component [2] is “Our structure revealed two ATP molecules and their coordinating Mg ions”. Turning to `C[C@@H](OP(=O)(O)O)[C@H](NC(=O)CCCCCCS)C(=O)O` [CoB–SH], in assay [3] (distal active site), the cryo-EM structure result is reported as “the phosphate moiety of CoB–SH was kept in place by the positively charged McrA residues”. Take `C[C@@H](OP(=O)(O)O)[C@H](NC(=O)CCCCCCSSCCS(=O)(=O)O)C(=O)O` [CoMS–SCoB]: the cryo-EM structure entry in assay [3] (proximal active site, next to F430, sample incubated with ATP) is “In the proximal active site, we found the CoMS–SCoB heterodisulfide next to F430”.

B1: A2 component (natural protein)
chain: MLLLEVKNVSKSYGDTEVLKNVSFELNEGDVMGVLGRSGAGKSVLLHMLRGMEGYEPTSGQIIYHVAYCPHCENVEAPSQVGKKCECETEYVAKSVDFWNNNEITYALKKKIAIMLQRTFALYGEKTVAENIMEALTAAGYEGKDATEWALNLIKMVKLEHRVAHISRDLSGGEKQRVVLARQIAKNPVIFLADEPTGTLDPKTAKFVHNALTEAVIKHNIAMVITSHWPEVIEELCQKAIWLDKGEMRLVGESKHVVEEFMKTVTSMKEFEKVEVKDELLKLENVEKRYVSVDRGIVKAVDGIDVSINEKEIFGLVGVSGAGKTTLSKIIAAVIPPSKGNYEFRLADEWVDMTKVGPLYRGRAKRYIGMLFQEYSLYPHRTILYNLTESIGLEMPGEFAKMKAEHTLVSVGFTEEEAENMLEKHPSELSVGEKHRVALAQVLIREPHLILLDEPTGTMDPITRNQVAESIQKSRSELDQTYVIVSHDMDFVLNVCDRAALVRGGKIIKTGKPDEIVKILSEEEKDEMIGH
In assay [4], B1 gave an occupancy of the A2 component, sample preincubated with 5 mM ATP (% of the particles) of 92 and a percent of particles with the A2 component, sample 'as isolated' (% of particles) of 58.

Source of the values: article PMC12176620, “Structure of the ATP-driven methyl-coenzyme M reductase activation complex” (Nature, 2025).
